Data published in the supplement of paper PMC10949913.
Structures can show the parent of a compound that is named as a salt.

Experiments:
[1] = test system: NCI-H295R; test: ExcessHSA synergy score with TAK-243; higher = less synergy (negative = synergistic); settings: combined with: TAK-243 (MLN-7243) matrix, 9-point 1:2 dilution
Description: (§1)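 Each drug was tested at 9 points with 1:2 dilution; viability was read by CellTiter-Glo as in the single-agent screen. Synergy is scored as ExcessHSA (sum of excess over highest single agent; negative = synergy) and the Beta interaction parameter (<1 synergy).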

[2] = test system: CU-ACC1; test: as above; settings: combined with: TAK-243 (MLN-7243) matrix, 9-point 1:2 dilution
Description: as §1

| Compound | ExcessHSA synergy score with TAK-243 [1] | ExcessHSA synergy score with TAK-243 [2] |
| --- | --- | --- |
| O=C1NC(=O)C(c2cnc3ccccn23)=C1c1cn2c3c(cc(F)cc13)CN(C(=O)N1CCCCC1)CC2 | 305 | 432 |
| CO[C@H]1C[C@@H]2CC[C@@H](C)[C@@](O)(O2)C(=O)C(=O)N2CCCC[C@H]2C(=O)O[C@H]([C@H](C)C[C@@H]2CC[C@@H](OCCO)[C@H](OC)C2)CC(=O)[C@H](C)/C=C(\C)[C@@H](O)[C@@H](OC)C(=O)[C@H](C)C[C@H](C)/C=C/C=C/C=C/1C [Everolimus] | -1040 | -885 |
| NS(=O)(=O)OC[C@@H]1C[C@@H](n2ccc3c(N[C@H]4CCc5ccccc54)ncnc32)C[C@@H]1O [MLN-4924] | -344 | -111 |
| CN1CCN(c2ccc(Nc3ncc4cc5n(c4n3)C3(CCCCC3)CNC5=O)nc2)CC1 [Trilaciclib (hydrochloride)] | 125 | -171 |
| CNc1nc(NC2CCN(Cc3ccc4c(cc(C#N)n4C[C@H](C)N4CCN(S(C)(=O)=O)CC4)c3C)CC2)c2cc(CC(F)(F)F)sc2n1 [Ziftomenib (KO-539)] | -888 | -443 |
| CC1(C)CCC2(CC1)N[C@@H](C(=O)N[C@@H]1CC[C@@H](C(N)=O)OC1)[C@H](c1ccnc(Cl)c1F)[C@]21C(=O)Nc2cc(Cl)ccc21 [Milademetan] | -111 | -380 |
| CC1(C)CCC(CN2CCN(c3ccc(C(=O)NS(=O)(=O)c4ccc(NCC5CCOCC5)c([N+](=O)[O-])c4)c(Oc4cnc5[nH]ccc5c4)c3)CC2)=C(c2ccc(Cl)cc2)C1 [Venetoclax (ABT-199)] | -424 | -249 |
| Nc1c(C(=O)c2ccccc2)sc2[nH]c(=O)c(C(=O)O)cc12 | -51.1 | -23.4 |
| C[C@@H]1C[C@H]2[C@@H]3CCC4=CC(=O)C=C[C@]4(C)[C@@]3(F)[C@@H](O)C[C@]2(C)[C@@]1(O)C(=O)CO [Dexamethasone] | 743 | 420 |
| CS(=O)(=O)c1ccc(C(=O)Nc2ccc(Cl)c(-c3ccccn3)c2)c(Cl)c1 [Vismodegib] | -5.69 | -206 |
| COc1cc2c(c(OC)n1)[C@]1(O)[C@H](O)[C@H](CN(C)C)[C@@H](c3ccccc3)[C@]1(c1ccc(C#N)cc1)O2 [Zotatifin] | 686 | 1170 |
| CC(C)C[C@H](NC(=O)[C@H](CCc1ccccc1)NC(=O)CN1CCOCC1)C(=O)N[C@@H](Cc1ccccc1)C(=O)N[C@@H](CC(C)C)C(=O)[C@@]1(C)CO1 [Carfilzomib] | -675 | -949 |
| CCc1cnn2c(NCc3ccc[n+]([O-])c3)cc(N3CCCC[C@H]3CCO)nc12 [Dinaciclib] | 170 | 86.7 |
| Nc1cccc2c1CN(C1CCC(=O)NC1=O)C2=O (stereo not given) [Lenalidomide] | 364 | 337 |
| COC(=O)[C@]12CCC(C)(C)C[C@H]1[C@H]1C(=O)C=C3[C@@]4(C)C=C(C#N)C(=O)C(C)(C)[C@@H]4CC[C@@]3(C)[C@]1(C)CC2 [CDDO-Me] | 271 | 94.3 |
